Source: patent publication US12410171B2, “Tropomyosin receptor kinase (TRK) degradation compounds and methods of use” (Cullgen (Shanghai), Inc., priority 2020, dated 2025)

Target: T1, TPM3-TRKA fusion protein (Homo sapiens, UniProt P04629)
T1 construct: The resulted chimeric proteins always retain the kinase domain of TRK proteins; TPM3 (fusion partner, N-terminal part of tropomyosin alpha-3, P06753); endogenous in cells; host or cells: KM12 colon cancer cells; the other entry of the earlier key: TPM3 (P06753, Tropomyosin alpha-3 chain)
Experiment: TPM3-TRKA fusion protein levels in KM12 cells (Western blot)
Format: cell-based
Settings: 16 h; TPM3-TRKA degradation in KM12 cells at 10 nM compound, category of percentage degradation; read-out: Degradation (at 10 nM)
Outline: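 KM12 colon cancer cells were treated with DMSO or compounds at 0.1–100 nM, 0.4–30 nM or other stated concentrations for 4, 8–16 or 16 h. RIPA lysates were BCA-normalized and resolved by SDS-PAGE. TPM3-TRKA was detected by chemiluminescent Western blot, with bands quantified by densitometry.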

T1 sequence (P04629 with tags, fused parts or gaps): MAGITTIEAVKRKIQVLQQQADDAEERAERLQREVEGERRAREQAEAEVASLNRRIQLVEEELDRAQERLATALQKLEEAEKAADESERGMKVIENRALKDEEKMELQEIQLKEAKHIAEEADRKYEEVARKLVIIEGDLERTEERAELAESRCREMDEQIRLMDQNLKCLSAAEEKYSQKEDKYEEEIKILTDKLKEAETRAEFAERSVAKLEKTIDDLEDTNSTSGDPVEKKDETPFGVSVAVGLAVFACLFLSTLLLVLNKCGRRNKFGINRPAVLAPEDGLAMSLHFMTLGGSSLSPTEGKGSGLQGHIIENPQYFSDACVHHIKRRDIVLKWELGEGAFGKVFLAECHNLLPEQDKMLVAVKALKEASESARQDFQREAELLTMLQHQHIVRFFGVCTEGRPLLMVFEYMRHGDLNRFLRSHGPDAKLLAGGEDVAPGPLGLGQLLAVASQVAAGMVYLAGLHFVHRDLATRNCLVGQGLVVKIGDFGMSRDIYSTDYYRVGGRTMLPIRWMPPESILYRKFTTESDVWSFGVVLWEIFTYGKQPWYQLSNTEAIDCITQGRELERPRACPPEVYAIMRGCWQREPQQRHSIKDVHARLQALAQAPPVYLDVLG

| percent degradation of TPM3-TRKA protein at 0.01 µM | Compound |
| --- | --- |
| > 80% | O=C(CN1CCN(c2ccc(C(=O)Nc3n[nH]c4ccc(Cc5cc(F)cc(F)c5)cc34)c(NC3CCOCC3)c2)CC1)NCCOCCOCCOCCOCCNc1cccc2c1C(=O)N(C1CCC(=O)NC1=O)C2=O (centres unmarked) [TR-150, N-(5-(3,5-Difluorobenzyl)-1H-indazol-3-yl)-4-(4-(17-((2˜ (2,6-dioxopiperidin-3-yl)-1,3-dioxoisoindolin-4-yl)amino)-2-oxo-6,9,12,15-tetraoxa-3-azaheptadecyl)piperazin-1-yl)-2˜ ((tetrahydro-2H-pyran-4-yl)amino)benzamide] |
| > 80% | O=C(CN1CCN(c2ccc(C(=O)Nc3n[nH]c4ccc(Cc5cc(F)cc(F)c5)cc34)c(NC3CCOCC3)c2)CC1)NCCOCCNc1cccc2c1C(=O)N(C1CCC(=O)NC1=O)C2=O (centres unmarked) [TR-151, N-(5-(3,5-Difluorobenzyl)-1H-indazol-3-yl)-4-(4-(2-((2-(2-((2-(2,6-dioxopiperidin-3-yl)-1,3-dioxoisoindolin-4-yl)amino)ethoxy)ethyl)amino)-2-oxoethyl)piperazin-1-yl)-2-((tetrahydro-2H-pyran-4-yl)amino)benzamide] |
| > 80% | O=C(CN1CCN(c2ccc(C(=O)Nc3n[nH]c4ccc(Cc5cc(F)cc(F)c5)cc34)c(NC3CCOCC3)c2)CC1)NCCCNc1cccc2c1C(=O)N(C1CCC(=O)NC1=O)C2=O (centres unmarked) [TR-152, N-(5-(3,5-Difluorobenzyl)-1H-indazol-3-yl)-4-(4-(2-((3-((2-(2,6-dioxopiperidin-3,3-yl)-1,3-dioxoisoindolin-4-yl)amino)propyl)amino)-2-oxocthyl)piperazin-1-yl)-2-((tetrahydro-2H-pyran-4-yl)amino)benzamide] |
| > 80% | O=C(CN1CCN(c2ccc(C(=O)Nc3n[nH]c4ccc(Cc5cc(F)cc(F)c5)cc34)c(NC3CCOCC3)c2)CC1)NCCOCCOCCNc1cccc2c1C(=O)N(C1CCC(=O)NC1=O)C2=O (centres unmarked) [TR-153, N-(5-(3,5-Difluorobenzyl)-1H-indazol-3-yl)-4-(4-(2-((2-(2-(2-((2-(2,6-dioxopiperidin-3-yl)-1,3-dioxoisoindolin-4-yl)amino)ethoxy)ethoxy)ethyl)amino)-2-oxoethyl)piperazin-1-yl)-2-((tetrahydro-2H-pyran-4-yl)amino)benzamide] |
| > 80% | O=C(CN1CCN(c2ccc(C(=O)Nc3n[nH]c4ccc(Cc5cc(F)cc(F)c5)cc34)c(NC3CCOCC3)c2)CC1)NCCCCNc1cccc2c1C(=O)N(C1CCC(=O)NC1=O)C2=O (centres unmarked) [TR-155, N-(5-(3,5-Difluorobenzyl)-1H-indazol-3-yl)-4-(4-(2-((4-((2-(2,6-dioxopiperidin-3-yl)-1,3-dioxoisoindolin-4-yl)amino)butyl)amino)-2-oxoethyl)piperazin-1-yl)-2-((tetrahydro-2/-pyran-4-yl)amino)benzamide] |
| > 80% | O=C(CN1CCN(c2ccc(C(=O)Nc3n[nH]c4ccc(Cc5cc(F)cc(F)c5)cc34)c(NC3CCOCC3)c2)CC1)NCCCCNc1ccc2c(c1)C(=O)N(C1CCC(=O)NC1=O)C2=O (centres unmarked) [TR-156, N-(5-(3,5-Difluorobenzyl)-1H-indazol-3-yl)-4-(4-(2-((4-((2-(2,6-dioxopiperidin-3-yl)-1,3-dioxoisoindolin-S-yl)amino)butyl)amino)-2-oxoethyl)piperazin-1-yl)-2-((tetrahydro-2H-pyran-4-yl)amino)benzamide] |
| > 80% | O=C(CN1CCN(c2ccc(C(=O)Nc3n[nH]c4ccc(Cc5cc(F)cc(F)c5)cc34)c(NC3CCOCC3)c2)CC1)NCCCCCCCNc1ccc2c(c1)C(=O)N(C1CCC(=O)NC1=O)C2=O (centres unmarked) [TR-157, N-(5-(3,5-Difluorobenzyl)-1H-indazol-3-yl)-4-(4-(2-((7-((2-(2,6-dioxopiperidin-3-yl)-1,3-dioxoisoindolin-5-yl)amino)heptyl)amino)-2-oxoethyl)piperazin-1-yl)-2-((tetrahydro-2H-pyran-4-yl)amino)benzamide] |
| > 80% | O=C(CN1CCN(c2ccc(C(=O)Nc3n[nH]c4ccc(Cc5cc(F)cc(F)c5)cc34)c(NC3CCOCC3)c2)CC1)NCCOCCOCCOCCOCCNc1ccc2c(c1)C(=O)N(C1CCC(=O)NC1=O)C2=O (centres unmarked) [TR-160, N-(5-(3,5-Difluorobenzyl)-1H-indazol-3-yl)-4-(4-(17-((2-(2,6-dioxopiperidin-3-yl)-1,3-dioxoisoindolin-S-yl)amino)-2-oxo-6,9,12,15-tetraoxa-3-azaheptadecyl)piperazin-1-yl)-2-((tetrahydro-2H-pyran-4-yl)amino)benzamide] |
| > 80% | O=C(CN1CCN(c2ccc(C(=O)Nc3n[nH]c4ccc(Cc5cc(F)cc(F)c5)cc34)c(NC3CCOCC3)c2)CC1)NCCOCCNc1ccc2c(c1)C(=O)N(C1CCC(=O)NC1=O)C2=O (centres unmarked) [TR-161, N-(5-(3,5-Difluorobenzyl)-1H-indazol-3-yl)-4-(4-(2-((2-(2-((2-(2,6-dioxopiperidin-3-yl)-1,3-dioxoisoindolin-5-yl)amino)ethoxy)ethyl)amino)-2-oxoethyl)piperazin-1-yl)-2-((tetrahydro-2H-pyran-4-yl)amino)benzamide] |
| > 80% | O=C(CN1CCN(c2ccc(C(=O)Nc3n[nH]c4ccc(Cc5cc(F)cc(F)c5)cc34)c(NC3CCOCC3)c2)CC1)NCCOCCOCCNc1ccc2c(c1)C(=O)N(C1CCC(=O)NC1=O)C2=O (centres unmarked) [TR-162, N-(5-(3,5-Difluorobenzyl)-1H-indazol-3-yl)-4-(4-(2-((2-(2-(2-((2-(2,6-dioxopiperidin-3-yl)-1,3-dioxoisoindolin-5-yl)amino)ethoxy)ethoxy)ethyl)amino)-2-oxocthyl)piperazin-1-yl)-2-((tetrahydro-2H-pyran-4-yl)amino)benzamide] |
| > 80% | O=C(CN1CCN(c2ccc(C(=O)Nc3n[nH]c4ccc(Cc5cc(F)cc(F)c5)cc34)c(NC3CCOCC3)c2)CC1)NCCOCCOCCOCCNc1ccc2c(c1)C(=O)N(C1CCC(=O)NC1=O)C2=O (stereo not drawn) [TR-163, N—(S-(3,5-Difluorobenzyl)-1H-indazol-3-yl)-4-(4-(14-((2-(2,6-dioxopiperidin-3-yl)-1,3-dioxoisoindolin-5-yl)amino)-2-oxo-6,9,12-trioxa-3-azatetradecyl)piperazin-1-yl)-2˜ ((tetrahydro-2H-pyran-4-yl)amino)benzamide] |
| > 80% | O=C(CN1CCN(c2ccc(C(=O)Nc3n[nH]c4ccc(Cc5cc(F)cc(F)c5)cc34)c(NC3CCOCC3)c2)CC1)NCCCCCNc1ccc2c(c1)C(=O)N(C1CCC(=O)NC1=O)C2=O (centres unmarked) [TR-164, N-(5-(3,5-Difluorobenzyl)-1H-indazol-3-yl)-4-(4-(2-((5-((2-(2,6-dioxopiperidin-3-yl)-1,3-dioxoisoindolin-5-yl)amino)pentyl)amino)-2-oxoethyl)piperazin-1-yl)-2-((tetrahydro-2H-pyran-4-yl)amino)benzamide] |
| > 80% | O=C(CN1CCN(c2ccc(C(=O)Nc3n[nH]c4ccc(Cc5cc(F)cc(F)c5)cc34)c(NC3CCOCC3)c2)CC1)NCCNc1ccc2c(c1)C(=O)N(C1CCC(=O)NC1=O)C2=O (centres unmarked) [TR-165, N-(5-(3,5-Difluorobenzyl)-1H-indazol-3-yl)-4-(4-(2-((2-((2-(2,6-dioxopiperidin-3-yl)-1,3-dioxoisoindolin-5-yl)amino)ethyl)amino)-2-oxoethyl)piperazin-1-yl)-2-((tetrahydro-2H-pyran-4-yl)amino)benzamide] |
| > 80% | O=C(CN1CCN(c2ccc(C(=O)Nc3n[nH]c4ccc(Cc5cc(F)cc(F)c5)cc34)c(NC3CCOCC3)c2)CC1)NCCOCCOCCOCCOCCOCCNc1ccc2c(c1)C(=O)N(C1CCC(=O)NC1=O)C2=O (centres unmarked) [TR-166, N-(5-(3,5-Difluorobenzyl)-1H-indazol-3-yl)-4-(4-(20-((2-(2,6-dioxopiperidin-3-yl)-1,3-dioxoisoindolin-5-yl)amino)-2-oxo-6,9,12,15,18-pentaoxa-3-azaicosyl)piperazin-1-yl)-2-((tetrahydro-28-pyran-4-yl)amino)benzamide] |
| > 80% | O=C(CN1CCN(c2ccc(C(=O)Nc3n[nH]c4ccc(Cc5cc(F)cc(F)c5)cc34)c(NC3CCOCC3)c2)CC1)NCCCNc1ccc2c(c1)C(=O)N(C1CCC(=O)NC1=O)C2=O (centres unmarked) [TR-167, N-(5-(3,5-Difluorobenzyl)-1H-indazol-3-yl)-4-(4-(2-((3-((2-(2,6-dioxopiperidin-3-yl)-1,3-dioxoisoindolin-5-yl)amino)propyl)amino)-2-oxocthyl)piperazin-1-yl)-2-((tetrahydro-2H-pyran-4-yl)amino)benzamide] |
| > 80% | O=C1CCC(N2C(=O)c3ccc(NCCCC(=O)N4CCN(c5cccc(-c6cnc7ccc(N8CCC[C@@H]8c8cccc(F)c8)nn67)n5)CC4)cc3C2=O)C(=O)N1 (stereo partly drawn) [TR-168, 2-(2,6-Dioxopiperidin-3-yl)-5-((4-(4-(6-(6-((R)-2-(3-fluorophenyl)pyrrolidin-1-yl)imidazo[1,2-b]pyridazin-3-yl)pyridin-2-yl)piperazin-1-yl)-4-oxobutyl)amino) isoindoline-1,3-dione] |
| > 80% | O=C1CCC(N2C(=O)c3ccc(NCCCC(=O)N4CCN(c5ccc(C(=O)Nc6n[nH]c7ccc(Cc8cc(F)cc(F)c8)cc67)c(NC6CCOCC6)c5)CC4)cc3C2=O)C(=O)N1 (centres unmarked) [TR-169, N-(5-(3,5-Difluorobenzyl)-1H-indazol-3-yl)-4-(4-(4-((2-(2,6-dioxopiperidin-3-yl)-1,3-dioxoisoindolin-S-yl)amino)butanoyl)piperazin-1-yl)-2-((tetrahydro-2/-pyran-4-yl)amino)benzamide] |
